Experimental findings from patent US8614218B2, “Fused bicyclic pyrimidines” (Bayer Intellectual Property GmbH, priority 2007, dated 2013) are described below.

The subject of experiment [1] is A549 cells. Put plainly: Cellular proliferation/cytotoxicity assay (Alamar Blue), A549. The format is cell-based. The following applies: Homo sapiens, 72 h, Alamar Blue (Resazurin), read-out: Anti-proliterative/Cytotoxic activity (A549 cells). As for the experimental part:
(§1) Cellular Proliferation/Cytotoxicity Assay:
(§2) The anti-proliferative activity of the compounds as described herein, is evaluated using the OvCAR3, HCT116 and A549 cell lines and the Alamar Blue (Resazurin) cell viability assay (O'Brien et al. Eur J Biochem 267, 5421-5426, 2000). Resazurin is reduced to the fluorescent resorufin by cellular dehydrogenase activity, correlating with viable, proliferating cells. Test compounds are dissolved as 10 mM solutions in DMSO and subsequently diluted. Cells like HCT116 or A549 cells were seeded into 96 well flat bottom plates at a density of 10000 cells/well (OvCAR3 cells), 1000 cells/well (HCT116 cells) or 2000 cells/well (A549 cells) in a volume of 200 μl/well. 24 hours after seeding, 1 μl each of the compound dilutions are added into each well of the 96 well plates. Each compound dilution is tested as at least as duplicates. Wells containing untreated control cells were filled with 200 μl DMEM (Dulbecco's Modified Eagle Medium) containing 0.5 vol % v:v DMSO. The cells are then incubated with the substances for 72 h at 37° C. in a humidified atmosphere containing 5 vol % CO2. To determine the viability of the cells, 20 μl of a Resazurin solution (90 mg/l) are added. After 4 h incubation at 37° C., the fluorescence is measured by extinction at λ=544 nm and an emission of λ=590 nm (Wallac Victor2; Perkin Elmer, USA). For the calculation of the cell viability, the emission value from untreated cells is set as 100% viability and the fluorescence intensity of treated cells are set in relation to the values of untreated cells. Viabilities are expressed as % values. The corresponding IC50 values of the compounds for cytotoxic activity are determined from the concentration-effect curves by means of non-linear regression. The analysis of the data is performed using a biostatistical program (GraphPad Prism, USA).
(§3) Representative IC50 values for anti-proliferative/cytotoxic potency determined in the aforementioned assay follow from the following table, in which the numbers of the compound correspond to the numbers of the examples.

Experiment [2] concerns OvCAR3 cells. Put plainly: Cellular proliferation/cytotoxicity assay (Alamar Blue), OvCAR3. Particulars: Homo sapiens, OVCAR-3, 72 h, Alamar Blue (Resazurin), read-out: Anti-proliferative/Cytotoxic activity (OvCAR3 cells). It is filed as cell-based. As for the experimental part: as §1, §2, §3

pIC50: −log10 of the molar value.

Regarding `Cc1nc2nc(-c3ccc(CN4CCC(c5n[nH]c(-c6ccccn6)n5)CC4)cc3)c(-c3ccccc3)cn2n1` [Example 3, 2-methyl-6-phenyl-5-(4-{[4-(5-pyridin-2-yl-1,2,4-triazol-3-yl)piperidin-1-yl]methyl}phenyl)[1,2,4]triazolo[1,5-a]pyrimidine], the pIC50 in experiment [1] and in experiment [2] was greater than 5.00 throughout.

`c1ccc(-c2cn3ccnc3nc2-c2ccc(CN3CCC(c4n[nH]c(-c5cnccn5)n4)CC3)cc2)cc1` [Example 21, 6-phenyl-7-(4-{[4-(5-pyrazin-2-yl-1,2,4-triazol-3-yl)piperidin-1-yl]methyl}phenyl)imidazo[1,2-a]pyrimidine]: the pIC50 in experiment [1] is less than 5.00; in experiment [2] it was greater than 5.00.

With `C=Cc1cnc2nc(-c3ccc(CN4CCC(c5n[nH]c(-c6ccccn6)n5)CC4)cc3)c(-c3ccccc3)cn12` [Example 15, 6-phenyl-7-(4-{[4-(5-pyridin-2-yl-1,2,4-triazol-3-yl)piperidin-1-yl]methyl}phenyl)-3-vinylimidazo[1,2-a]pyrimidine], the values for the pIC50 in experiment [1] and in experiment [2] were less than 5.00 and greater than 5.00, respectively.

In the case of `c1ccc(-c2cn3ncnc3nc2-c2ccc(CN3CCC(c4n[nH]c(-c5ccccn5)n4)CC3)cc2)cc1` [Example 2, 6-phenyl-5-(4-{[4-(5-pyridin-2-yl-1,2,4-triazol-3-yl)piperidin-1-yl]methyl}phenyl)[1,2,4]triazolo[1,5-a]pyrimidine], the figures for the pIC50 in experiment [1] and in experiment [2] were less than 5.00 and greater than 5.00, respectively.

Turning to `c1ccc(-c2cn3ccnc3nc2-c2ccc(CN3CCC(c4nc(-c5ccccn5)n[nH]4)CC3)cc2)cc1` [Example 1, 6-phenyl-7-(4-{[4-(3-pyridin-2-yl-1,2,4-triazol-5-yl)piperidin-1-yl]methyl}phenyl)imidazo[1,2-a]pyrimidine], the pIC50 in experiment [1] is less than 5.00; in experiment [2], greater than 5.00.

Consider `CNc1c(-c2ccccc2)c(-c2ccc(CN3CCC(c4n[nH]c(-c5ccccn5)n4)CC3)cc2)nc2nccn12` [Example 10, N-methyl-6-phenyl-7-(4-{[4-(5-pyridin-2-yl-1,2,4-triazol-3-yl)piperidin-1-yl]methyl}phenyl)imidazo[1,2-a]pyrimidin-5-amine], for which the figures for the pIC50 in experiment [1] and in experiment [2] were less than 5.00 and greater than 5.00, respectively.

For the molecule `Cc1cnc2nc(-c3ccc(CN4CCC(c5n[nH]c(-c6ccccn6)n5)CC4)cc3)c(-c3ccccc3)cn12` [Example 14, 3-methyl-6-phenyl-7-(4-{[4-(5-pyridin-2-yl-1,2,4-triazol-3-yl)piperidin-1-yl]methyl}phenyl)imidazo[1,2-a]pyrimidine], the pIC50 in experiment [1] and in experiment [2] was greater than 5.00 in each case.

With `C#Cc1cnc2nc(-c3ccc(CN4CCC(c5n[nH]c(-c6ccccn6)n5)CC4)cc3)c(-c3ccccc3)cn12` [Example 13, 3-ethynyl-6-phenyl-7-(4-{[4-(5-pyridin-2-yl-1,2,4-triazol-3-yl)piperidin-1-yl]methyl}phenyl)imidazo[1,2-a]pyrimidine], the pIC50 in experiment [1] and in experiment [2] was greater than 5.00 each time.

`c1ccc(-c2cn3nccc3nc2-c2ccc(CN3CCC(c4n[nH]c(-c5ccccn5)n4)CC3)cc2)cc1` [Example 19, 6-phenyl-5-(4-{[4-(5-pyridin-2-yl-1,2,4-triazol-3-yl)piperidin-1-yl]methyl}phenyl)pyrazolo[1,5-a]pyrimidine]: the figures for the pIC50 in experiment [1] and in experiment [2] were less than 5.00 and greater than 5.00, respectively.

With `c1ccc(-c2cn3ccnc3nc2-c2ccc(CN3CCC(c4n[nH]c(-c5ncccn5)n4)CC3)cc2)cc1` [Example 18, 6-phenyl-7-(4-{[4-(5-pyrimidin-2-yl-1,2,4-triazol-3-yl)piperidin-1-yl]methyl}phenyl)imidazo[1,2-a]pyrimidine], the pIC50 in experiment [1] is less than 5.00; in experiment [2], greater than 5.00.

`c1ccc(-c2cn3nc(C4CC4)nc3nc2-c2ccc(CN3CCC(c4n[nH]c(-c5ccccn5)n4)CC3)cc2)cc1` [Example 4, 2-cyclopropyl-6-phenyl-5-(4-{[4-(5-pyridin-2-yl-1,2,4-triazol-3-yl)piperidin-1-yl]methyl}phenyl)[1,2,4]triazolo[1,5-a]pyrimidine]: the pIC50 in experiment [1] and in experiment [2] was greater than 5.00 throughout.

Regarding `CCc1cn2cc(-c3ccccc3)c(-c3ccc(CN4CCC(c5n[nH]c(-c6ccccn6)n5)CC4)cc3)nc2n1` [Example 17, 2-ethyl-6-phenyl-7-(4-{[4-(5-pyridin-2-yl-1,2,4-triazol-3-yl)piperidin-1-yl]methyl}phenyl)imidazo[1,2-a]pyrimidine], the pIC50 in experiment [1] and in experiment [2] was greater than 5.00 in each case.

For the molecule `Cc1nc2nc(-c3ccc(CN4CCC(c5n[nH]c(-c6ccccn6)n5)CC4)cc3)c(-c3ccsc3)cn2n1` [Example 54, 2-Methyl-5-(4-{[4-(5-pyridin-2-yl-1H-1,2,4-triazol-3-yl)piperidin-1-yl]methyl}phenyl)-6-(3-thienyl)[1,2,4]triazolo[1,5-a]pyrimidine], the pIC50 in experiment [1] is greater than 5.00.

`Brc1nc2nc(-c3ccc(CN4CCC(c5n[nH]c(-c6ccccn6)n5)CC4)cc3)c(-c3ccccc3)cn2n1` [Example 52, 2-Bromo-6-phenyl-5-(4-{[4-(5-pyridin-2-yl-1H-1,2,4-triazol-3-yl)piperidin-1-yl]methyl}phenyl)[1,2,4]triazolo[1,5-a]pyrimidine]: the pIC50 in experiment [1] is greater than 5.00.

Regarding `c1ccc(-c2cn3nc(C4CC4)cc3nc2-c2ccc(CN3CCC(c4n[nH]c(-c5ccccn5)n4)CC3)cc2)cc1` [Example 48, 2-Cyclopropyl-6-phenyl-5-(4-{[4-(5-pyridin-2-yl-1H-1,2,4-triazol-3-yl)piperidin-1-yl]methyl}phenyl)pyrazolo[1,5-a]pyrimidine], the pIC50 in experiment [1] is greater than 5.00.

For `Cc1nc2nc(-c3ccc(CN4CCC(c5nc(-c6ccc[nH]6)n[nH]5)CC4)cc3)c(-c3ccccc3)cn2n1` [Example 73, 2-Methyl-6-phenyl-5-[4-({4-[3-(1H-pyrrol-2-yl)-1H-1,2,4-triazol-5-yl]piperidin-1-yl}methyl)phenyl][1,2,4]triazolo[1,5-a]pyrimidine], the pIC50 in experiment [1] was greater than 5.00.

`CNc1nc2nc(-c3ccc(CN4CCC(c5n[nH]c(-c6ccccn6)n5)CC4)cc3)c(-c3ccccc3)cn2n1` [Example 65, N-Methyl-6-phenyl-5-(4-{[4-(5-pyridin-2-yl-1H-1,2,4-triazol-3-yl)piperidin-1-yl]methyl}phenyl)[1,2,4]triazolo[1,5-a]pyrimidin-2-amine]: in experiment [1], the pIC50 is greater than 5.00.

Consider `c1ccc(-c2nc(C3CCN(Cc4ccc(-c5nc6nccn6cc5-c5ccsc5)cc4)CC3)n[nH]2)nc1` [Example 51, 7-(4-{[4-(5-Pyridin-2-yl-1H-1,2,4-triazol-3-yl)piperidin-1-yl]methyl}phenyl)-6-(3-thienyl)imidazo[1,2-a]pyrimidine], for which the pIC50 in experiment [1] was greater than 5.00.

As for `Nc1nc2nc(-c3ccc(CN4CCC(c5n[nH]c(-c6ccccn6)n5)CC4)cc3)c(-c3ccccc3)cn2n1` [Example 67, 6-Phenyl-5-(4-{[4-(5-pyridin-2-yl-1H-1,2,4-triazol-3-yl)piperidin-1-yl]methyl}phenyl)[1,2,4]triazolo[1,5-a]pyrimidin-2-amine], in experiment [1], the pIC50 was greater than 5.00.

With `NC(=O)c1cc2nc(-c3ccc(CN4CCC(c5n[nH]c(-c6ccccn6)n5)CC4)cc3)c(-c3ccccc3)cn2n1` [Example 78, 6-Phenyl-5-(4-{[4-(5-pyridin-2-yl-1H-1,2,4-triazol-3-yl)piperidin-1-yl]methyl}phenyl)pyrazolo[1,5-a]pyrimidine-2-carboxamide], in experiment [1], the pIC50 was less than 5.00.

Consider `c1ccc(-c2cn3nccc3nc2-c2ccc(CN3CCC(c4nc(-c5nccs5)n[nH]4)CC3)cc2)cc1` [Example 70, 6-Phenyl-5-[4-({4-[3-(1,3-thiazol-2-yl)-1H-1,2,4-triazol-5-yl]piperidin-1-yl}methyl)phenyl]pyrazolo[1,5-a]pyrimidine], for which the pIC50 in experiment [1] is less than 5.00.

As for `c1ccc(-c2cn3nccc3nc2-c2ccc(CN3CCC(c4nc(-c5ccncc5)n[nH]4)CC3)cc2)cc1` [Example 71, 6-Phenyl-5-(4-{[4-(3-pyridin-4-yl-1H-1,2,4-triazol-5-yl)piperidin-1-yl]methyl}phenyl)pyrazolo[1,5-a]pyrimidine], the pIC50 in experiment [1] is less than 5.00.

Consider `c1ccc(-c2cn3ccnc3nc2-c2ccc(CN3CCC(c4nc(-c5ccc[nH]5)n[nH]4)CC3)cc2)cc1` [Example 68, 6-Phenyl-7-[4-({4-[3-(1H-pyrrol-2-yl)-1H-1,2,4-triazol-5-yl]piperidin-1-yl}methyl)phenyl]imidazo[1,2-a]pyrimidine], for which, in experiment [1], the pIC50 is greater than 5.00.

Take `c1ccc(-c2cn3nccc3nc2-c2ccc(CN3CCC(c4nc(-c5ccco5)n[nH]4)CC3)cc2)cc1` [Example 81, 5-[4-({4-[3-(2-furyl)-1H-1,2,4-triazol-5-yl]piperidin-1-yl}methyl)phenyl]-6-phenylpyrazolo[1,5-a]pyrimidine]: the pIC50 in experiment [1] was greater than 5.00.
